The record followed here is patent publication US7524487B2, “Compositions and methods for modulating interleukin-10” (University of Maryland, priority 2005, dated 2009).

The test system of one experiment is Sp1. Briefly: EMSA of Sp1 binding to the IL-10 promoter motif, nuclear extracts of BMMφ. The class given is cell-based, mice. The note with it: BMMφ stimulated with LPS 10 ng/ml or LPS+E-IgG for 30 min. As to the method:
A. Cells were stimulated with LPS (10 ng/ml) or LPS+E-IgG for 30 min and nuclear extracts were analyzed by EMSA using Sp1 (A) or STAT3 (B) specific probes. C. RAW264.7 cells were stimulated with medium (open bar), E-IgG (dotted bar), LPS (solid bar) or LPS+E-IgG (striped bar) and cytokines measured by ELISA after 6 h. Data represents the mean of triplicate samples±SD. D. RAW264.7 cells were transfected with pRL-IL10-luciferase reporter plasmid (5 ug/ml) and 24 h later stimulated with medium (con), 10 ng/ml LPS (solid bar) or E-IgG+LPS (striped bar) for 4 h. Cells were then lysed and luciferase activity measured. This figure is representative of 3 experiments.
Electrophoretic mobility shift assay (EMSA). Nuclear extracts were prepared from 2×10^7 Mφ using the Nuclear Extraction kit (Panomics, Redwood City, Calif.) following the manufactures protocol. EMSAs were carried out using the EMSA “Gel-Shift” kit (Panomics, Redwood City, Calif.). Briefly, 5 μg of nuclear extract were incubated with biotin-Sp1 or STAT3 probe±unlabelled probe for 30 min at 20° C., and then run on a 6% polyacrylamide gel. Oligo/protein complexes were transferred to Biodyne B membrane (Pall, Ann Arbor, Mich.). Following transfer, membranes were incubated with streptavidin-HRP and protein visualized by chemiluminescence.
For orientation: A gel shift assay detects complexes by their altered migration in electrophoresis.

The test system of a further experiment is IL-10 promoter. Nature of the experiment: ChIP of Sp1 and STAT3 binding to the IL-10 promoter in situ in stimulated BMMφ. Format: cell-based, mice. On the procedure:
BMMφ were stimulated with medium (open bar), E-IgG (dotted bar), LPS (solid bar), or LPS+E-IgG (striped bar) for 40 min. Some cells were pretreated with PD98059 (10 μM). Immunoprecipitations were carried out using either Sp1 or STAT3 specific Abs. A. Conventional RT-PCR was carried out using primers which amplify the putative Sp1 or STAT3 binding sites of the IL-10 promoter respectively. B. Real time PCR analysis of samples obtained in A. Samples were normalized to input DNA controls.
FIG. 22 is a graph showing Inhibition of histone modifications by blocking ERK. BMMφ were pre-treated with PD98059 (15 μM) (solid bars) or drug vehicle (open bars) for 1 hour and then stimulated with IC plus LPS (10 ng/mL). Cross-linked chromatin fragments were immunoprecipitated with antibody to phosphorylated histone H3 at Ser 10 or antibody to Sp1. The DNA was purified and analyzed for the presence of IL-10 promoter sequences corresponding to nucleosome −2 by QRT-PCR. The data were plotted graphically as the percentage change relative to drug vehicle (IC/LPS) at 30 min post-stimulation for histone H3 phosphorylation, and at 45 min post-stimulation for Sp1 recruitment. One representative from two independent experiments is presented.
Chromatin immunoprecipitation (ChIP). ChIPs were carried out using the ChIP Assay kit following the manufacturer's protocol (Upstate USA, Inc., Lake Placid, N.Y.). […]

With `COc1cccc(-c2cc(=O)c3ccccc3o2)c1N` [PD98059], the “Sp1 binding to the IL-10 promoter (EMSA)” value in the experiment with Sp1 is reported as “no effect”. In addition, the “Sp1 recruitment to IL-10 promoter nucleosome −2 (ChIP, QRT-PCR)” value in the experiment with IL-10 promoter (BMMφ pre-treated with PD98059 15 μM for 1 hour, IC plus LPS 10 ng/mL, 45 min post-stimulation, relative to drug vehicle) is “dramatically reduced”. Moreover, the “Sp1 and STAT3 transcription factor binding to the IL-10 promoter in situ (ChIP)” value in the experiment on IL-10 promoter (BMMφ pretreated with PD98059 10 μM, LPS + E-IgG for 40 min) is on record as “reversed”.
